This assay concerns the target T1, His-tagged recombinant human TrkA (Homo sapiens, UniProt P04629).
T1 construct: 6HIS tagged cytoplasmic domain from Invitrogen, Catalog No. PV3144; purchased Invitrogen PV3144
Kind of assay: TrkA LanthaScreen Eu Kinase Binding Assay. To be noted: averaged IC50 values; read-out: TrkA enzyme IC50. The procedure:
TrkA binding activity was determined in a TrkA LanthaScreen™ Eu Kinase Binding Assay. 5 nM His-tagged recombinant human TrkA (6HIS tagged cytoplasmic domain from Invitrogen, Catalog No. PV3144) was incubated with 4 nM Alexa-Fluor® Tracer 236 (Invitrogen Cat. No. PV5592), 2 nM biotinylated anti-His (Invitrogen Cat. No. PV6090), and 2 nM europium-labeled Streptavidin (Invitrogen Cat. No. PV5899), in buffer (25 mM MOPS, pH 7.5, 5 mM MgCl2, 0.005% Triton X-100). Three fold serial dilutions of compounds of the invention in DMSO were added to a final percentage of 2% DMSO. After 60-minute incubation at 22° C., the reaction was measured using the EnVision mutlimode plate reader (PerkinElmer) via TR-FRET dual wavelength detection at […]. The percent of control was calculated using a ratiometric emission factor. The IC50 values were determined by fitting a four parameter model to the percent of control data.
Table A provides averaged IC50 values for compounds of the invention when tested in the assay of Example A, where A represents an averaged IC50 value <100 nM; and B represents an averaged IC50 value from 100 to 1,000 nM.
For orientation: Time-resolved FRET reads energy transfer from a long-lived donor to a nearby acceptor.

T1 sequence (P04629 440-796 limits assumed): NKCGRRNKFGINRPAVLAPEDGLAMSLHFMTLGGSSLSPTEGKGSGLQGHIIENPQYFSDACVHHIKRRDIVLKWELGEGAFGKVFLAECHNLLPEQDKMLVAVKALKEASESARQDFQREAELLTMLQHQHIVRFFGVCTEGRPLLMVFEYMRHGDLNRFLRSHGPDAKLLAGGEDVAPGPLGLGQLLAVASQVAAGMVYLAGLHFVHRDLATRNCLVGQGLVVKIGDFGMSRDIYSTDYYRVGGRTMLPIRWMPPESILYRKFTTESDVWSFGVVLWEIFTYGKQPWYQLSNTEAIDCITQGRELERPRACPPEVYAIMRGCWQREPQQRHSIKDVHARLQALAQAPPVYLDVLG

Consider `COCCN1C[C@@H](NC(=O)Nc2cccc3cn[nH]c23)[C@H](c2ccccc2)C1` (relative stereo) [Example 1, 1-(1H-indazol-7-yl)-3-(trans-1-(2-methoxyethyl)-4-phenylpyrrolidin-3-yl)urea di-trifluoroacetate], for which the IC50 (as a rule, the concentration at which inhibition is half-maximal) lay within 100 to 1000 nM. The value for `COCCN1C[C@@H](NC(=O)Nc2ccc(C)c3cn[nH]c23)[C@H](c2ccccc2)C1` (relative stereo) [Example 2, 1-(trans-1-(2-methoxyethyl)-4-phenylpyrrolidin-3-yl)-3-(4-methyl-1H-indazol-7-yl)urea di-trifluoroacetate] was 100 to 1000 nM; that for `COCCN1C[C@@H](NC(=O)Nc2cccc3c(Br)n[nH]c23)[C@H](c2ccccc2)C1` (relative stereo) [Example 3, 1-(3-bromo-1H-indazol-7-yl)-3-(trans-1-(2-methoxyethyl)-4-phenylpyrrolidin-3-yl)urea] was under 100 nM. For the molecule `COCCN1C[C@@H](NC(=O)Nc2cccc3c(-c4ccccc4)n[nH]c23)[C@H](c2ccccc2)C1` (relative stereo) [Example 4, 1-(trans-1-(2-methoxyethyl)-4-phenylpyrrolidin-3-yl)-3-(3-phenyl-1H-indazol-7-yl)urea], the half-inhibitory concentration (IC50) was under 100 nM. With `COCCN1C[C@@H](NC(=O)Nc2c(-c3ccccc3)nc3sc(C)cn23)[C@H](c2ccccc2)C1` (relative stereo) [Example 5, 1-((trans)-1-(2-methoxyethyl)-4-phenylpyrrolidin-3-yl)-3-(2-methyl-6-phenylimidazo[2,1-b]thiazol-5-yl)urea], the IC50 was in the range of 100 to 1000 nM.

`COCCN1C[C@@H](NC(=O)Nc2c(-c3ccccc3)nc3ccccn23)[C@H](c2ccccc2)C1` (relative stereo) [Example 6, 1-((trans)-1-(2-methoxyethyl)-4-phenylpyrrolidin-3-yl)-3-(2-phenylimidazo[1,2-a]pyridin-3-yl)urea]: the concentration for half-maximal inhibition (IC50) is under 100 nM. `COCCN1C[C@@H](NC(=O)Nc2c(-c3ccccc3)nc3ncccn23)[C@H](c2ccccc2)C1` (relative stereo) [Example 7, 1-((trans)-1-(2-methoxyethyl)-4-phenylpyrrolidin-3-yl)-3-(2-phenylimidazo[1,2-a]pyrimidin-3-yl)urea]: the half-maximal inhibitory concentration (IC50) is under 100 nM. Next, `COCCN1C[C@@H](NC(=O)Nc2c(-c3ccccc3)nc3scnn23)[C@H](c2ccccc2)C1` (relative stereo) [Example 8, 1-((trans)-1-(2-methoxyethyl)-4-phenylpyrrolidin-3-yl)-3-(6-phenylimidazo[2,1-b][1,3,4]thiadiazol-5-yl)urea]: under 100 nM; `COCCN1C[C@@H](NC(=O)Nc2c(-c3ccccc3)nc3sccn23)[C@H](c2ccccc2)C1` (relative stereo) [Example 9, 1-((trans)-1-(2-methoxyethyl)-4-phenylpyrrolidin-3-yl)-3-(6-phenylimidazo[2,1-b]thiazol-5-yl)urea]: under 100 nM; `COCCN1C[C@@H](NC(=O)Nc2c(-c3ccccc3)nc3cnccn23)[C@H](c2ccccc2)C1` (relative stereo) [Example 10, 1-((trans)-1-(2-methoxyethyl)-4-phenylpyrrolidin-3-yl)-3-(2-phenylimidazo[1,2-a]pyrazin-3-yl)urea]: under 100 nM. Next, `COCCN1C[C@@H](NC(=O)Nc2c(-c3ccccc3)nc3c(C)cccn23)[C@H](c2ccccc2)C1` (relative stereo) [Example 11, 1-((trans)-1-(2-methoxyethyl)-4-phenylpyrrolidin-3-yl)-3-(8-methyl-2-phenylimidazo[1,2-a]pyridin-3-yl)urea]: under 100 nM; `COCCN1C[C@@H](NC(=O)Nc2c(-c3ccccc3)nc3cc(C)ccn23)[C@H](c2ccccc2)C1` (relative stereo) [Example 12, 1-((trans)-1-(2-methoxyethyl)-4-phenylpyrrolidin-3-yl)-3-(7-methyl-2-phenylimidazo[1,2-a]pyridin-3-yl)urea]: under 100 nM. As for `COCCN1C[C@@H](NC(=O)Nc2c(-c3ccccc3)nc3ccc(C)cn23)[C@H](c2ccccc2)C1` (relative stereo) [Example 13, 1-((trans)-1-(2-methoxyethyl)-4-phenylpyrrolidin-3-yl)-3-(6-methyl-2-phenylimidazo[1,2-a]pyridin-3-yl)urea], the IC50 was in the range of 100 to 1000 nM. Next, `COCCN1C[C@@H](NC(=O)Nc2c(-c3ccccc3)nc3c(Cl)cccn23)[C@H](c2ccccc2)C1` (relative stereo) [Example 14, 1-(8-chloro-2-phenylimidazo[1,2-a]pyridin-3-yl)-3-((trans)-1-(2-methoxyethyl)-4-phenylpyrrolidin-3-yl)urea]: under 100 nM; `COCCN1C[C@@H](NC(=O)Nc2c(-c3ccccc3)nc3c(C(F)(F)F)cccn23)[C@H](c2ccccc2)C1` (relative stereo) [Example 16, 1-((trans)-1-(2-methoxyethyl)-4-phenylpyrrolidin-3-yl)-3-(2-phenyl-8-(trifluoromethyl)imidazo [1,2-a]pyridin-3-yl)urea]: under 100 nM; `COCCN1C[C@@H](NC(=O)Nc2c(-c3ccccc3)nc3ccc(F)cn23)[C@H](c2ccccc2)C1` (relative stereo) [Example 17, 1-(6-fluoro-2-phenylimidazo[1,2-a]pyridin-3-yl)-3-((trans)-1-(2-methoxyethyl)-4-phenylpyrrolidin-3-yl)urea]: under 100 nM. The value for `COCCN1C[C@@H](NC(=O)Nc2c(-c3ccccc3)[nH]c3ccccc23)[C@H](c2ccccc2)C1` (relative stereo) [Example 26, 1-((trans)-1-(2-methoxyethyl)-4-phenylpyrrolidin-3-yl)-3-(2-phenyl-1H-indol-3-yl)urea] was under 100 nM; that for `COCCN1C[C@@H](NC(=O)Nc2c(-c3ccccc3)nc3c(C)cccn23)[C@H](c2ccccc2)C1` [Example 15, 1-((3S,4R)-1-(2-methoxyethyl)-4-phenylpyrrolidin-3-yl)-3-(8-methyl-2-phenylimidazo[1,2-a]pyridin-3-yl)urea] was under 100 nM; that for `COCCN1C[C@@H](NC(=O)Nc2c(-c3ccccc3)nc3c(F)cccn23)[C@H](c2ccccc2)C1` [Example 18, 1-(8-fluoro-2-phenylimidazo[1,2-a]pyridin-3-yl)-3-((3S,4R)-1-(2-methoxyethyl)-4-phenylpyrrolidin-3-yl)urea] was under 100 nM. As to `COCCN1C[C@@H](NC(=O)Nc2c(-c3ccccc3)nc3c(C)nccn23)[C@H](c2ccccc2)C1` [Example 19, 1-((3S,4R)-1-(2-methoxyethyl)-4-phenylpyrrolidin-3-yl)-3-(8-methyl-2-phenylimidazo[1,2-a]pyrazin-3-yl)urea], the IC50 is under 100 nM. Next, `COCCN1C[C@@H](NC(=O)Nc2c(-c3ccccc3)nc3c(=O)[nH]ccn23)[C@H](c2ccc(F)c(F)c2)C1` [Example 21, 1-((3S,4R)-4-(3,4-difluorophenyl)-1-(2-methoxyethyl)pyrrolidin-3-yl)-3-(8-oxo-2-phenyl-7,8-dihydroimidazo[1,2-a]pyrazin-3-yl)urea]: under 100 nM; `COCCN1C[C@@H](NC(=O)Nc2c(-c3ccccc3)nc3c(OC)nccn23)[C@H](c2ccc(F)c(F)c2)C1` [Example 22, 1-((3S,4R)-4-(3,4-difluorophenyl)-1-(2-methoxyethyl)pyrrolidin-3-yl)-3-(8-methoxy-2-phenylimidazo[1,2-a]pyrazin-3-yl)urea]: under 100 nM. For `COCCN1C[C@@H](NC(=O)Nc2c(-c3ccccc3)nc3c(C)nccn23)[C@H](c2cc(F)cc(F)c2)C1` [Example 23, 1-((3S,4R)-4-(3,5-difluorophenyl)-1-(2-methoxyethyl)pyrrolidin-3-yl)-3-(8-methyl-2-phenylimidazo[1,2-a]pyrazin-3-yl)urea], the IC50 is under 100 nM. `COCCN1C[C@@H](NC(=O)Nc2c(-c3ccccc3)nc3c(=O)n(C)ccn23)[C@H](c2ccc(F)c(F)c2)C1` [Example 24, 1-((3S,4R)-4-(3,4-difluorophenyl)-1-(2-methoxyethyl)pyrrolidin-3-yl)-3-(7-methyl-8-oxo-2-phenyl-7,8-dihydroimidazo[1,2-a]pyrazin-3-yl)urea]: the IC50 was under 100 nM. Turning to `CCn1ccn2c(NC(=O)N[C@@H]3CN(CCOC)C[C@H]3c3ccc(F)c(F)c3)c(-c3ccccc3)nc2c1=O` [Example 25, 1-((3S,4R)-4-(3,4-difluorophenyl)-1-(2-methoxyethyl)pyrrolidin-3-yl)-3-(7-ethyl-8-oxo-2-phenyl-7,8-dihydroimidazo[1,2-a]pyrazin-3-yl)urea], the 50% inhibitory concentration (IC50) was under 100 nM. On to `COCCN1C[C@@H](NC(=O)Nc2c(-c3ccccc3)nc3c(C)nccn23)[C@H](c2ccc(F)cc2)C1` [Example 27, 1-((3S,4R)-4-(4-fluorophenyl)-1-(2-methoxyethyl)pyrrolidin-3-yl)-3-(8-methyl-2-phenylimidazo[1,2-a]pyrazin-3-yl)urea], for which the IC50 was under 100 nM. Take `COCCN1C[C@@H](NC(=O)NC2=C(c3ccccc3)C(=O)c3ccccc32)[C@H](c2ccc(F)c(F)c2)C1` [Example 28, 1-((3S,4R)-4-(3,4-difluorophenyl)-1-(2-methoxyethyl)pyrrolidin-3-yl)-3-(1-oxo-2-phenyl-1H-inden-3-yl)urea]: the IC50 lay within 100 to 1000 nM.
